Reference: ChEMBL document CHEMBL1122948, “3,4-Diphenyl-1H-pyrazole-1-propanamine antidepressants” (J Med Chem, 1985)

Assays:
Type in all cases: functional
Rattus norvegicus [1] = organism: Rattus norvegicus; assay: In vitro inhibitory activity against [3H]5-HT uptake into crude synaptosomes from whole rat brain.
Mus musculus [2] = assay: Effect on tetrabenazine-induced suppression of locomotor activity in the mouse after peroral administration
Rattus norvegicus [3] = organism: Rattus norvegicus; assay: In vitro inhibitory activity against [3H]-5-HT uptake into crude synaptosomes from whole rat brain.
Mus musculus [4] = assay: Prevention of reserpine-induced ptosis in the mouse after peroral administration

- IC50 (Rattus norvegicus [1]): 0.24 µM
- IC50 (Rattus norvegicus [3]): 3.1 µM
SMILES: CN(C)CCCN1c2ccccc2CCc2ccccc21 [IMIPRAMINE]
- MED (Mus musculus [2]): 4 (mg of base) kg-1
- MED (Mus musculus [4]): 4 (mg of base) kg-1
